# System: individual adherent cells
# Test: Force measurement from a single adherent cell on microfluidic embedded polymer NEMS force sensor
# Type: cell-based
# Conditions: 200 pN force resolution, 10 ms time resolution
# Source text: Successful micro-fluidic encapsulation is routine and consistently performed at very high yields, (>90%). The force sensing capabilities of the devices have been tested and calibrated by perturbing the force sensors with glass micro-needles mounted on piezo-electric actuators, data shown in FIG. 6A. The force sensors have been tested in micro-fluidics be measuring their response to shear forces generated by fluid flow. The force sensors have been successfully used to measure forces exerted by individual adherent cells and to study the mechanical response of those cells to cytoskeleton perturbing reagents such as Cytochalasin D.
# Such measurements were performed with 200 pN force resolution—an improvement of 25 fold over prior art—and 10 ms time resolution—and improvement of 300 fold over prior art.
# These measurements were performed with 200 pN force resolution—an improvement of 25 fold over prior art—and 10 ms time resolution—and improvement of 300 fold over prior art.
compound,measurement,setting,value
C=C1[C@@H](C)[C@H]2[C@H](Cc3ccccc3)NC(=O)[C@]23[C@H](OC(C)=O)/C=C/[C@@](C)(O)C(=O)[C@@H](C)C/C=C/[C@H]3[C@@H]1O [Cytochalasin D],force exerted by a single cell (force vs. time) when Cytochalasin D is removed,after removal of Cytochalasin D,recovery of the force
same,force exerted by a single cell (force vs. time) when Cytochalasin D is introduced,stable force in growth media before,collapse of that force

# Reference: patent US20100024572A1, “POLYMER NEMS FOR CELL […] MICRO[…] P[…] FOR MICRO-BIOCALORIMETER” (CALIFORNIA INSTITUTE OF TECHNOLOGY, priority 2006, published 2010)
